Like-named read-outs stand apart in the source and are kept apart here.
Columns and labels:
Type in all cases: biochemical
kinases [1] = target: kinases (Homo sapiens, UniProt Q16620); settings: NTRK2 (TRKB) *Mn* Z-Lyte SP; Test Conc(μM):ATP Conc(μM) 1:25
kinases [2] = target: kinases (Homo sapiens, UniProt Q8IU85); settings: CAMK1D FRET-Z-Lyte SP; Test Conc(μM):ATP Conc(μM) 1:25
kinases [3] = target: kinases (Homo sapiens, UniProt Q96NX5); settings: CAMK1G FRET-Z-Lyte SP
kinases [4] = target: kinases (Homo sapiens, UniProt O00444); settings: PLK4 FRET-Lantha SP; Test Conc(μM) 1
kinases [5] = target: kinases (Homo sapiens, UniProt Q16288); settings: NTRK3 (TRKC) FRET-Z-Lyte SP; Test Conc(μM):ATP Conc(μM) 1:50
kinases [6] = target: kinases (Homo sapiens, UniProt P51955); settings: NEK2 FRET-Z-Lyte SP; Test Conc(μM):ATP Conc(μM) 1:150
kinases [7] = target: kinases (Homo sapiens, UniProt P22455); settings: FGFR4 *Mn* FRET-Z-Lyte SP; Test Conc(μM):ATP Conc(μM) 1:150
kinases [8] = target: kinases (Homo sapiens, UniProt Q15418); settings: RPS6KA1 (RSK1) FRET-Z-Lyte SP; Test Conc(μM):ATP Conc(μM) 1:5
kinases [9] = target: kinases (Homo sapiens, UniProt Q8N5S9); settings: CAMKK1 (Alpha) FRET-Lantha SP; Test Conc(μM) 1
kinases [10] = target: kinases (Homo sapiens, UniProt Q9Y463); settings: DYRK1B FRET-Z-Lyte SP; Test Conc(μM):ATP Conc(μM) 1:75
kinases [11] = target: kinases (Homo sapiens, UniProt Q9NRA0); settings: SPHK2 FRET-Adapta SP; Test Conc(μM):ATP Conc(μM) 1:10
kinases [12] = target: kinases (Homo sapiens, UniProt O95835); settings: LATS1 FRET-Lantha SP; Test Conc(μM) 1
kinases [13] = target: kinases (Homo sapiens, UniProt Q14680); settings: MELK FRET-Z-Lyte SP; Test Conc(μM):ATP Conc(μM) 1:25
kinases [14] = target: kinases (Homo sapiens, UniProt Q9UPE1); settings: STK23 (MSSK1) FRET-Z-Lyte SP; Test Conc(μM):ATP Conc(μM) 1:75
kinases [15] = target: kinases (Homo sapiens, UniProt P54646)
kinases [16] = target: kinases (Homo sapiens, UniProt Q9H2G2); settings: SLK Hu Bind FRET-Lantha SP; Test Conc(μM) 1
kinases [17] = target: kinases (Homo sapiens, UniProt P09769); settings: FGR FRET-Z-Lyte SP; Test Conc(μM):ATP Conc(μM) 1:10
kinases [18] = target: kinases (Homo sapiens, UniProt P45983)
kinases [19] = target: kinases (Homo sapiens, UniProt Q86V86); settings: PIM3 FRET-Z-Lyte SP; Test Conc(μM):ATP Conc(μM) 1:1000
kinases [20] = target: kinases (Homo sapiens, UniProt Q04912); settings: MST1R (RON) FRET-Z-Lyte SP; Test Conc(μM):ATP Conc(μM) 1:10
kinases [21] = target: kinases (Homo sapiens, UniProt Q9H422); settings: HIPK3 (YAK1) FRET-Z-Lyte SP; Test Conc(μM):ATP Conc(μM) 1:25
kinases [22] = target: kinases (Homo sapiens, UniProt Q7KZI7); settings: MARK2 FRET-Z-Lyte SP; Test Conc(μM):ATP Conc(μM) 1:10
kinases [23] = target: kinases (Homo sapiens, UniProt P06493)
kinases [24] = target: kinases (Homo sapiens, UniProt Q9Y2K2); settings: SIK3 FRET-Lantha SP; Test Conc(μM) 1
kinases [25] = target: kinases (Homo sapiens, UniProt Q9HC98); settings: NEK6 FRET-Z-Lyte SP; Test Conc(μM):ATP Conc(μM) 1:100
kinases [26] = target: kinases (Homo sapiens, UniProt Q13153); settings: PAK1 FRET-Z-Lyte SP; Test Conc(μM):ATP Conc(μM) 1:50
kinases [27] = target: kinases (Homo sapiens, UniProt Q00536); settings: CDK16(PCTK1)/cyclinY Lantha SP; Test Conc(μM) 1
[28] = AMPK (A2/B2/G1) FRET-Lantha SP, Test Conc(μM) 1
[29] = AMPK (A2/B2/G2) FRET-Lantha SP, Test Conc(μM) 1
[30] = AMPK A2/B1/G1 FRET-Z-Lyte SP, Test Conc(μM):ATP Conc(μM) 1:150
[31] = AMPK A2/B1/G2 FRET-Z-Lyte SP, Test Conc(μM):ATP Conc(μM) 1:10
[32] = AMPK A2/B1/G3 FRET-Z-Lyte SP, Test Conc(μM):ATP Conc(μM) 1:25
[33] = AMPK A2/B2/G3 FRET-Z-Lyte SP, Test Conc(μM):ATP Conc(μM) 1:50
[34] = MAPK8 (JNK1) Cascade Z-Lyte SP, Test Conc(μM):ATP Conc(μM) 1:100
[35] = MAPK8 (JNK1) FRET-Lantha SP, Test Conc(μM) 1
[36] = CDK1/cyclin A2 FRET-Lantha SP, Test Conc(μM) 1
[37] = CDK1/cyclin B FRET-Z-Lyte SP, Test Conc(μM):ATP Conc(μM) 1:25

Chain of kinases (Homo sapiens, UniProt P54646) (P54646 whole entry): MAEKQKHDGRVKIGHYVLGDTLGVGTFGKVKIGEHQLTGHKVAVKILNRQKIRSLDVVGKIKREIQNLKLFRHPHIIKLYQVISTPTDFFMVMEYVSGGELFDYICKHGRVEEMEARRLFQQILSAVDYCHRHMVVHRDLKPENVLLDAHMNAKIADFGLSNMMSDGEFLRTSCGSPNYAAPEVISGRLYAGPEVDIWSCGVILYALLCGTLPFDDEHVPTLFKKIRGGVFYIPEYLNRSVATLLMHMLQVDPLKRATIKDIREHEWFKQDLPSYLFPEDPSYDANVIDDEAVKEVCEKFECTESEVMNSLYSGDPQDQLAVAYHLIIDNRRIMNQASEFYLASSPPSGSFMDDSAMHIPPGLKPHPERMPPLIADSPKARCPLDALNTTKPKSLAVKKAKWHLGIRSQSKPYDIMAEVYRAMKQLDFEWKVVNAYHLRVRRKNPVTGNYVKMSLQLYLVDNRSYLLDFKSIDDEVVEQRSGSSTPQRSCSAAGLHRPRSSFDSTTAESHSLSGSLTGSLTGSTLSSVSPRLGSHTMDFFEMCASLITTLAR
Chain of kinases (Homo sapiens, UniProt P06493) (P06493 whole entry): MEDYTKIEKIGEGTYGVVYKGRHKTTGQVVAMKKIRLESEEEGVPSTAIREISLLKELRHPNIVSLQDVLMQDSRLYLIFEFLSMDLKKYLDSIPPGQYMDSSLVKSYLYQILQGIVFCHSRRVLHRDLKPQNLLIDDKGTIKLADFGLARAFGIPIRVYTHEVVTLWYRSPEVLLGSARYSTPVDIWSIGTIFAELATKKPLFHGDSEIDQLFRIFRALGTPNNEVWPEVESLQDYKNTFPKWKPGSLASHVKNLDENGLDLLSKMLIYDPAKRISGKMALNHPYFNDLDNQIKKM
Chain of kinases (Homo sapiens, UniProt P45983) (P45983 whole entry): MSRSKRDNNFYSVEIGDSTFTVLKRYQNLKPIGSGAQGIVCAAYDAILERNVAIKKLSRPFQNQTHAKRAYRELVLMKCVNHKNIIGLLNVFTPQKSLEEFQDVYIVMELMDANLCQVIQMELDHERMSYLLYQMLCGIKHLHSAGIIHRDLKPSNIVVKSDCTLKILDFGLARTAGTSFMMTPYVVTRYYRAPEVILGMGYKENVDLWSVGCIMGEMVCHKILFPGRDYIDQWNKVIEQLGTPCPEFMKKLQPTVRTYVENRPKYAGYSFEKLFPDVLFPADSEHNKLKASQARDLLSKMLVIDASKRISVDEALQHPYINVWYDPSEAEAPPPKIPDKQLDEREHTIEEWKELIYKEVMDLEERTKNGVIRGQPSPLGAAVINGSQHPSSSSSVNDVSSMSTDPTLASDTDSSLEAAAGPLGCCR
Chain of kinases (Homo sapiens, UniProt Q9H2G2) (Q9H2G2 whole entry): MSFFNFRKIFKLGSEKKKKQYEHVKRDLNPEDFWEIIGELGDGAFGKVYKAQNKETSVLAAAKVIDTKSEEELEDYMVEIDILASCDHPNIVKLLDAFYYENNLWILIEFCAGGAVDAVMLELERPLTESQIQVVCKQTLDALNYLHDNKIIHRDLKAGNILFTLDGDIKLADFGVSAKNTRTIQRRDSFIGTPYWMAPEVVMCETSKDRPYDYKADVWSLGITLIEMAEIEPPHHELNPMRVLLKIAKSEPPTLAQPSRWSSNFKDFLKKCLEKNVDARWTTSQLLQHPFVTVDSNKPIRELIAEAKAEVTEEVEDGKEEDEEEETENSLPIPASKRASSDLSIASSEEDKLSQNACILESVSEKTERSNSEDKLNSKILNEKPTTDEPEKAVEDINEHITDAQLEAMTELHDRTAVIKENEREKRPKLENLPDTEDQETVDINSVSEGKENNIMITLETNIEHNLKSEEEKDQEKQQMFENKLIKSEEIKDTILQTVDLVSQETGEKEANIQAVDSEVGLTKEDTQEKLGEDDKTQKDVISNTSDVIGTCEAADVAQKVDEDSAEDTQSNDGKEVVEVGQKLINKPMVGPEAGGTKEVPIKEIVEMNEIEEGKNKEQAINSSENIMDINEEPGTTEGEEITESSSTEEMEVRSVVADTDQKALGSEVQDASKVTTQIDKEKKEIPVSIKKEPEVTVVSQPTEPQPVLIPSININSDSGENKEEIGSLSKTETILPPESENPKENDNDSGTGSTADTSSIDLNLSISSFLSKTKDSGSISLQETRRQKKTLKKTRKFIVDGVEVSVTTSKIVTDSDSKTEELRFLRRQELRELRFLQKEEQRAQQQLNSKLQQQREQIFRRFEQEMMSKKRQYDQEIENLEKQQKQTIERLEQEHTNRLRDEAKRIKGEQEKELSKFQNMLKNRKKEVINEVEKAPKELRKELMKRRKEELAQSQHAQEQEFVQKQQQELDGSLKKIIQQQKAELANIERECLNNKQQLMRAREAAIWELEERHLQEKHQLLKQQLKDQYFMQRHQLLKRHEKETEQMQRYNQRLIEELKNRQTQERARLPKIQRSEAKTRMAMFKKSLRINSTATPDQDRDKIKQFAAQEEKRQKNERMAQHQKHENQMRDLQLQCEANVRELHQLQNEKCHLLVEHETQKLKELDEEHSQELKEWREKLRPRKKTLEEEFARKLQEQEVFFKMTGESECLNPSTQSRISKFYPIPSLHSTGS
Chain of kinases (Homo sapiens, UniProt Q96NX5) (Q96NX5 whole entry): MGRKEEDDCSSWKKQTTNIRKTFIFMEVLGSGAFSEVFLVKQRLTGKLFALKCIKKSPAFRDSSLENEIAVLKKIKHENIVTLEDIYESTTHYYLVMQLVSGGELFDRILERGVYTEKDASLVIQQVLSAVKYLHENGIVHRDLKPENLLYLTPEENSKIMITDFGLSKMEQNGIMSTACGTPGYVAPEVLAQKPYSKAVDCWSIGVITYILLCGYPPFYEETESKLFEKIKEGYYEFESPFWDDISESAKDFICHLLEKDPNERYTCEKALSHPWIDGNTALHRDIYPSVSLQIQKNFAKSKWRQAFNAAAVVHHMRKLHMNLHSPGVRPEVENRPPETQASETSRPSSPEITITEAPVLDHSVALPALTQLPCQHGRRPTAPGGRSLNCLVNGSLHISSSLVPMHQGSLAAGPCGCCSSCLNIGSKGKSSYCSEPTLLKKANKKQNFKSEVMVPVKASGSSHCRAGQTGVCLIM
Chain of kinases (Homo sapiens, UniProt Q9NRA0) (Q9NRA0 whole entry): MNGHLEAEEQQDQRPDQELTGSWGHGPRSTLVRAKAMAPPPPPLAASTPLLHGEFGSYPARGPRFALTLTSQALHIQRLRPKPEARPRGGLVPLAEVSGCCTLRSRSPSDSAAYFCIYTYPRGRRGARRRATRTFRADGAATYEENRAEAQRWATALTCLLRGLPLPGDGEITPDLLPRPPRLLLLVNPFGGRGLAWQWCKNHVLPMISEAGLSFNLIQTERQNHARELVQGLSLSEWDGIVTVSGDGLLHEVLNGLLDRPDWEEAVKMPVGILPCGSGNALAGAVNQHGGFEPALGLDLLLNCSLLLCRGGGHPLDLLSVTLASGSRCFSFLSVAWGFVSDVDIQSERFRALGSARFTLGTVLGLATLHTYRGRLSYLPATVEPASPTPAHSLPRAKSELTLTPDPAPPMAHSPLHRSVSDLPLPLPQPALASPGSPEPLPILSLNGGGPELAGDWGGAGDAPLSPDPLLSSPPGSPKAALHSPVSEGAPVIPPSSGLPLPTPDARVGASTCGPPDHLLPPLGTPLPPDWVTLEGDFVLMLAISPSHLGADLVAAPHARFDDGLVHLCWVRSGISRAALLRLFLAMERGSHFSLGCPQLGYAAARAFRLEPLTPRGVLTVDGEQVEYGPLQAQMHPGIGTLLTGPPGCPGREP
Chain of kinases (Homo sapiens, UniProt Q9HC98) (Q9HC98 whole entry): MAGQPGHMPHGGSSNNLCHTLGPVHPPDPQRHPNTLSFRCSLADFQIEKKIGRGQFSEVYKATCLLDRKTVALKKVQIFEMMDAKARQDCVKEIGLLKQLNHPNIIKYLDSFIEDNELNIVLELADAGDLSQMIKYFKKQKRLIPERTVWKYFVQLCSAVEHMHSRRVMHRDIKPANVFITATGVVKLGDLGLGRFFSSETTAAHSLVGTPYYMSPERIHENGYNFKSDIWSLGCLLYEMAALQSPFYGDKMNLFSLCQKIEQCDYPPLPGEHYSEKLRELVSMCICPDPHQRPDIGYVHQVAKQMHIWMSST
Chain of kinases (Homo sapiens, UniProt Q7KZI7) (Q7KZI7 whole entry): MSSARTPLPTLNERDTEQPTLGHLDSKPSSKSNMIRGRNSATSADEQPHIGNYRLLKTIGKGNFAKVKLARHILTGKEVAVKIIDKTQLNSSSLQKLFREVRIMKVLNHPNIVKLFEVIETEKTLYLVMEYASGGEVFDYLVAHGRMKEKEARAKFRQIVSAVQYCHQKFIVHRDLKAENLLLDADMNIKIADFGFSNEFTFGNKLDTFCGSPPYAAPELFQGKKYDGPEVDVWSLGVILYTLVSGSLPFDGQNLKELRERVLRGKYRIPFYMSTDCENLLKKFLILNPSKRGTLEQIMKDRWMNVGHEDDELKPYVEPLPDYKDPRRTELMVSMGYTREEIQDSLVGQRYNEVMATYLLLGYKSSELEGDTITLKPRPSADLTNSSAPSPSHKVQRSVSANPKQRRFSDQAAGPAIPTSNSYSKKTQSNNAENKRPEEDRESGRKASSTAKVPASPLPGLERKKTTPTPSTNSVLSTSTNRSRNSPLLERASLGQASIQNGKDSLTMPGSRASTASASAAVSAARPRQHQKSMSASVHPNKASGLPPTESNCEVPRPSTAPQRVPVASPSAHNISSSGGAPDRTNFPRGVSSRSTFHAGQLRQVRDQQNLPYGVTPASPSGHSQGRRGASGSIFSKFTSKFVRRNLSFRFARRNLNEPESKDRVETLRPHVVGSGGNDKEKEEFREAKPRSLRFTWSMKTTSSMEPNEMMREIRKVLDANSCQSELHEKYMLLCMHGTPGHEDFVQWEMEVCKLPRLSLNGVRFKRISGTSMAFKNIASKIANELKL

SMILES	Mean Inhib (%) (kinases [1])	Mean Inhib (%) (kinases [2])	Mean Inhib (%) (kinases [4])	Mean Inhib (%) (kinases [5])	Mean Inhib (%) (kinases [6])	Mean Inhib (%) (kinases [7])	Mean Inhib (%) (kinases [8])	Mean Inhib (%) (kinases [9])	Mean Inhib (%) (kinases [10])	Mean Inhib (%) (kinases [11])	Mean Inhib (%) (kinases [12])	Mean Inhib (%) (kinases [13])	Mean Inhib (%) (kinases [14])	Mean Inhib (%) (kinases [15]; [28])	Mean Inhib (%) (kinases [15]; [29])	Mean Inhib (%) (kinases [15]; [30])	Mean Inhib (%) (kinases [15]; [31])	Mean Inhib (%) (kinases [15]; [32])	Mean Inhib (%) (kinases [15]; [33])	Mean Inhib (%) (kinases [16])	further results
Cc1ccc(NC(=O)c2ccnc(N3CCOCC3)c2)cc1Nc1ccnc(N2CC(C)OC(C)C2)n1 (centres unmarked) [compound 3]	1.9	0.0	0.2	3.5	−0.8	14.8	14.8	−7.3	3.0	−9.4	19.8	3.6	4.3	−0.8	−1.1	−3.5	11.4	7.8	3.8	−3.6	Mean Inhib (%) (kinases [3]; Test Conc(μM):ATP Conc(μM) 1:300): 5.8%; Mean Inhib (%) (kinases [17]): 9.4%; Mean Inhib (%) (kinases [18]; [34]): 6.5%; Mean Inhib (%) (kinases [18]; [35]): −6.1%; Mean Inhib (%) (kinases [19]): −1.4%; Mean Inhib (%) (kinases [20]): −8.2%; Mean Inhib (%) (kinases [21]): 0.6%; Mean Inhib (%) (kinases [22]): 7.4%; Mean Inhib (%) (kinases [23]; [36]): −1.0%; Mean Inhib (%) (kinases [23]; [37]): 3.8%; Mean Inhib (%) (kinases [24]): 5.6%; Mean Inhib (%) (kinases [25]): −4.0%; Mean Inhib (%) (kinases [26]): −1.9%; Mean Inhib (%) (kinases [27]): 3.4%
Cc1cc(Oc2ccnc(Nc3ccc(S(N)(=O)=O)cc3)c2)c(-c2ccccn2)nc1C [compound 65]	0.7	−7.6	6.1	2.7	12.8	−0.9	5.3	−6.4	−5.0	−1.2	17.2	6.0	−4.8	−1.2	1.4	2.9	−6.7	−5.2	−4.3	3.0	Mean Inhib (%) (kinases [3]; Test Conc(μM):ATP Conc(μM) 0.25): −3.7%; Mean Inhib (%) (kinases [17]): 67.3%; Mean Inhib (%) (kinases [18]; [34]): 16.9%; Mean Inhib (%) (kinases [18]; [35]): 7.0%; Mean Inhib (%) (kinases [19]): −2.6%; Mean Inhib (%) (kinases [20]): 5.3%; Mean Inhib (%) (kinases [21]): −0.3%; Mean Inhib (%) (kinases [22]): 3.8%; Mean Inhib (%) (kinases [23]; [36]): 25.4%; Mean Inhib (%) (kinases [23]; [37]): 3.2%; Mean Inhib (%) (kinases [24]): −4.7%; Mean Inhib (%) (kinases [25]): 8.2%; Mean Inhib (%) (kinases [26]): 14.1%; Mean Inhib (%) (kinases [27]): 0.2%

Source: patent US20220187282A1, “CARDIOMYOCYTE PROLIFERATION” (The Council of the Queensland Institute of Medical Research, priority 2019, published 2022)
